Laboratory results as given in patent publication US12252508B2, “Ginsenoside and anti-inflammatory composition comprising same” (AMOREPACIFIC CORPORATION, priority 2018, dated 2025).
Entries after “also recorded” stand apart in the source; their conditions may differ.

Key:
Format in all cases: cell-based
[1] = tested on: IL-1β; assay: IL-1β gene expression by qPCR in LPS-treated RAW 264.7 macrophages; settings: then 10 ng/mL LPS 6 hours
Protocol: (§1) RAW 264.7 macrophages purchased from ATCC were cultured in Dulbecco's modified Eagle's medium (Sigma) supplemented with 10% fetal bovine serum (FBS; HyClone) and 1% penicillin/streptomycin (Sigma) in a 5% CO2 incubator. After pretreating the RAW 264.7 cells with each of the 7 ginsenosides extracted from ginseng seed (GS #01 to GS #06 and GS #10; 10 μM each) for 2 hours, the cells were further treated with 10 ng/mL lipopolysaccharide (LPS; inflammation-induced group, Sigma) for 6 hours. Then, after extracting RNA using a Trizol™ reagent (Thermo Fisher Scientific), cDNA was synthesized using a RevertAid™ first-strand cDNA synthesis kit (Thermo Fisher Scientific). The expression of inflammation-related genes (IL-1β, IL-6 and iNOS) was observed using a CFX96 real-time quantitative PCR (qPCR) system (Bio-Rad).
(§2) RAW 264.7 macrophages were pretreated with ginsenosides Rg1, Rg3 and Rb1 (purchased from Sigma), which are marker compounds of red ginseng, as comparative examples of the present disclosure or the novel ginsenoside GS #10 (isolated from the ginseng seed extract) as an example of the present disclosure at 1 or 10 μM for 2 hours and then further treated with 10 ng/mL lipopolysaccharide (LPS) for 6 hours to induce inflammation. Then, after extracting RNA and synthesizing cDNA in the same manner as in Test Example 1, the expression of inflammation-related genes was observed by qPCR. […]

[2] = tested on: IL-6; assay: IL-6 gene expression by qPCR in LPS-treated RAW 264.7 macrophages; settings: then 10 ng/mL LPS 6 hours
Protocol: as §1, §2

[3] = tested on: iNOS; assay: iNOS gene expression by qPCR in LPS-treated RAW 264.7 macrophages; settings: then 10 ng/mL LPS 6 hours
Protocol: as §1, §2

[4] = tested on: inflammation-related genes (IL-1β, IL-6 and iNOS); assay: Overall anti-inflammatory effect from qPCR of inflammation-related genes (Test Example 2); settings: RAW 264.7; 1 or 10 μM, LPS 10 ng/mL; relative to Rg1; FIGS. 14-16
Protocol: as §1, §2

[5] = tested on: tumor necrosis factor α (TNF-α); assay: TNF-α secretion by ELISA in LPS-treated RAW 264.7 macrophages; settings: RAW 264.7, serum-free medium, 1 or 10 μM 2 hours, then 10 ng/mL LPS 6 hours, FIG. 17
Protocol: (§3) RAW 264.7 macrophages were used as in Test Example 2. A serum-free medium without comprising FBS was used for the measurement of the amount of cytokines. After pretreating the cells for 2 hours with each ginsenoside at 1 or 10 μM under the same condition as in Test Example 1 and then treating with 10 ng/mL LPS for 6 hours, only the medium was recovered and the secretion of pro-inflammatory cytokines, tumor necrosis factor α (TNF-α), interleukin 1β (IL-1β) and IL-6, was measured using an enzyme-linked immunosorbent assay kit (Abcam).

[6] = tested on: interleukin 1β (IL-1β); assay: IL-1β secretion by ELISA in LPS-treated RAW 264.7 macrophages; settings: RAW 264.7, serum-free medium, 1 or 10 μM 2 hours, then 10 ng/mL LPS 6 hours, FIG. 18
Protocol: as §3

[7] = tested on: IL-6; assay: IL-6 secretion by ELISA in LPS-treated RAW 264.7 macrophages; settings: RAW 264.7, serum-free medium, 1 or 10 μM 2 hours, then 10 ng/mL LPS 6 hours, FIG. 19
Protocol: as §3

[8] = tested on: nitric oxide (NO) production in RAW264.7 macrophages; assay: Nitric oxide (NO) production by Griess reaction in LPS-treated RAW 264.7 macrophages; settings: 1 or 10 μM 1 hour, then 10 ng/mL LPS 1 hour, FIG. 20
Protocol: RAW 264.7 macrophages were treated with 10 μM L-NAME (NO production inhibitor; control group; Sigma), ginsenosides Rg1, Rg3 and Rb1 (purchased from Sigma), which are marker compounds of red ginseng, as comparative examples of the present disclosure or the novel ginsenoside GS #10 (extracted from ginseng seed) as an example of the present disclosure at 1 or 10 μM for 1 hour, and then treated with 10 ng/mL LPS for 1 hour. The amount of NO produced during 1 hour was measured using the Griess reaction. Briefly, after adding 50 μL of sulfanilamide solution to 50 μL of each ginsenoside sample, the mixture was incubated for 10 minutes at room temperature under protection from light. Then, after adding N-(1-napthyl)ethylenediamine solution (50 μL), the mixture was further incubated for 10 minutes at room temperature under protection from light. The […] of NO was measured at a wavelength of 540 nm using a Tecan Infinite® 200 Pro multiplate reader. Sodium nitrite (NaNO2) was used to create a standard curve.

[9] = tested on: SH-SY5Y cells; assay: Cytotoxicity, cell viability by CCK-8; settings: 0.1, 1, 5, 10, 20 and 50 μM, FIG. 21
Protocol: After adding 10 μL of CCK-8 reagent to SH-SY5Y cells (Dojindo, MD, USA) on a 96-well plate and maintaining at 37° C. for 2 hours, absorbance was measured at 450 nm.
Cell viability was represented as the percentage (%) of the absolute optical density of each sample with respect to an untreated sample. The concentrations of the novel ginsenoside GS #10 according to an exemplary embodiment of the present disclosure in the medium for culturing the cells were 0.1, 1, 5, 10, 20 and 50 μM.

Compound	expression level of the IL-1β gene ([1]; 10 μM pretreatment 2 hours, compared to Compounds 1-6 at the same concentration, FIG. 11)	anti-inflammatory effect (IL-1β expression level) ([1]; 1 or 10 μM for 2 hours, compared to Rg1, Rg3 and Rb1, FIG. 14)	expression level of the IL-6 gene ([2]; 10 μM pretreatment 2 hours, compared to Compounds 1-6 at the same concentration, FIG. 12)	anti-inflammatory effect (IL-6 expression level) ([2]; 1 or 10 μM for 2 hours, compared to Rg1, Rg3 and Rb1, FIG. 15)	expression level of the iNOS gene ([3]; 10 μM pretreatment 2 hours, compared to Compounds 1-6 at the same concentration, FIG. 13)	anti-inflammatory effect (iNOS expression level) ([3]; 1 or 10 μM for 2 hours, compared to Rg1, Rg3 and Rb1, FIG. 16, listed as GS #10)	anti-inflammatory effect superior to that of Rg1 [4]	secretion of TNF-α [5]	secretion of IL-1β [6]	secretion of IL-6 [7]	NO production-inhibiting ability compared to Rg1, Rg3 and Rb1 [8]	NO production ([8]; with increasing dosage)	cytotoxicity (cell viability, % of untreated sample) [9]
CC1(C)C(=O)CC[C@@]2(C)C1[C@@H](O[C@H]1OC(CO)[C@H](O)C(O)C1O[C@H]1OC(CO)[C@H](O)C(O)C1O)C[C@]1(C)C2C[C@@H](O)C2C([C@]3(C)CC[C@H](C(C)(C)O)O3)CC[C@]21C (stereo partly drawn) [Compound 10, (20S,24R)-6-O-β-D-glucopyranosyl(1→2)-β-D-glucopyranoside-dammar-3-one-20,24-epoxy-6a,12b,25-triol]	remarkably suppress	remarkably excellent anti-inflammatory effect	remarkably suppress	remarkably excellent anti-inflammatory effect	remarkably suppress	remarkably excellent anti-inflammatory effect; also recorded: decreased greatly	about 10 times	significant decreased secretion	significant decreased secretion	significant decreased secretion	remarkably superior	decreased	no cytotoxicity
CC(C)=CCC[C@](C)(O[C@@H]1O[C@H](CO[C@@H]2O[C@H](CO)[C@@H](O)[C@H](O)[C@H]2O)[C@@H](O)[C@H](O)[C@H]1O)[C@H]1CC[C@]2(C)[C@@H]1[C@H](O)C[C@@H]1[C@@]3(C)CC[C@H](O[C@@H]4O[C@H](CO)[C@@H](O)[C@H](O)[C@H]4O[C@@H]4O[C@H](CO)[C@@H](O)[C@H](O)[C@H]4O)C(C)(C)[C@@H]3CC[C@]12C [Rb1, ginsenoside Rb1]								decreased	decreased	decreased			
CC(C)=CCC[C@](C)(O[C@@H]1O[C@H](CO)[C@@H](O)[C@H](O)[C@H]1O)[C@H]1CC[C@]2(C)[C@@H]1[C@H](O)C[C@@H]1[C@@]3(C)CC[C@H](O)C(C)(C)[C@@H]3[C@@H](O[C@@H]3O[C@H](CO)[C@@H](O)[C@H](O)[C@H]3O)C[C@]12C [Rg1, ginsenoside Rg1]								decreased	decreased	decreased			
CC(C)=CCC[C@](C)(O)[C@H]1CC[C@]2(C)[C@@H]1[C@H](O)C[C@@H]1[C@@]3(C)CC[C@H](O[C@@H]4O[C@H](CO)[C@@H](O)[C@H](O)[C@H]4O[C@@H]4O[C@H](CO)[C@@H](O)[C@H](O)[C@H]4O)C(C)(C)[C@@H]3CC[C@]12C [Rg3, ginsenoside Rg3]								decreased	decreased	decreased			
